These results are taken from ChEMBL document CHEMBL1828550, “Lead identification of β-lactam and related imine inhibitors of the molecular chaperone heat shock protein 90” (Bioorg Med Chem, 2011).

One assay concerns MCF7. Description: Antiproliferative activity against human MCF7 cells assessed as cell viability after 72 hrs by MTT assay. The class given is functional, cell-based. To be noted: MCF7, 72 h. For orientation: Formazan colour is commonly taken as a measure of viable cells.
Assay [1] addresses T1, Heat shock protein HSP 90-alpha (Homo sapiens, UniProt P07900). Description: Displacement of FITC-labeled geldanamycin from human recombinant HSP90alpha after 24 hrs by fluorescence displacement assay.
In assay [2] the target is T1, Heat shock protein HSP 90-alpha. As to the kind of experiment: Inhibition of Hsp90alpha in human MCF7 assessed as induction of proteasomal ER2alpha protein degradation at 50 uM after 24 hrs by Western blot analysis relative to control. (In western blotting, separated proteins are transferred to a membrane and probed.)
For assay [3] the target is unchanged. As to the kind of experiment: Inhibition of Hsp90alpha in human MCF7 assessed as induction of proteasomal ER2alpha protein degradation at 100 uM after 24 hrs by Western blot analysis relative to control.

pIC50: −log10 of the molar value. Activity calls are given as the source filed them. The calls are words filed in the database; no cut-off is given here. Where only a bound is given, the exact number is not on record here.

In general, pIC50 refers to −log10 of the IC50, conventionally taken in molar units. Turning to `CCc1cc([C@@H]2CC(=O)N2c2ccc3c(c2)OCO3)c(O)cc1O`, the pIC50 with MCF7 was 4.51; in assay [1], under 3.70.

Consider `COc1ccc(OC)c([C@@H]2CC(=O)N2c2ccc3c(c2)OCCO3)c1`, for which the results for the pIC50 (in the assay on MCF7; in assay [1]) were 4.27 and under 3.70, respectively.

On to `CCc1cc([C@@H]2CC(=O)N2c2ccc3c(c2)OCCO3)c(O)cc1O`, for which the result in assay [2] and in assay [3] was Active. Moreover, the values for the negative logarithm of the IC50 (pIC50) (in the assay with MCF7; in assay [1]) were 4.32 and 5.25, respectively.

With `CCc1cc([C@@H]2CC(=O)N2c2cc(OC)c(OC)c(OC)c2)c(O)cc1O`, the values for the pIC50 (in the assay on MCF7; in assay [1]) were 4.51 and under 3.70, respectively.

Consider `COc1ccc([C@@H]2CC(=O)N2c2ccc3c(c2)OCCO3)c(OC)c1`, for which the pIC50 in the assay on MCF7 was 4.28; in assay [1] it was under 3.70.

In the case of `CCc1cc([C@@H]2CC(=O)N2c2ccc(OC)cc2)c(O)cc1O`, the negative-log IC50 (pIC50) with MCF7 is 4.28; in assay [1] it was under 3.70.

In the case of `CCc1cc(/C=N/c2ccc3c(c2)OCCO3)c(O)cc1O`, the result in assay [2] was Active. Further, the pIC50 in the assay on MCF7 was under 4.00; in assay [1], 4.84.

For the compound `C=CCNC1=C2C[C@@H](C)C[C@H](OC)[C@H](O)[C@@H](C)/C=C(\C)[C@H](OC(N)=O)[C@@H](OC)/C=C\C=C(/C)C(=O)NC(=CC1=O)C2=O` [TANESPIMYCIN], in the assay on MCF7, the pIC50 was 7.05.

For `CCc1cc([C@@H]2[C@@H](c3ccccc3)C(=O)N2c2ccc3c(c2)OCCO3)c(O)cc1O`, the negative-log IC50 (pIC50) in the assay on MCF7 was under 4.00; in assay [1] it was under 3.70.

For `CCc1cc(/C=N/c2ccc3c(c2)OCO3)c(O)cc1O`, in assay [2], the outcome was Active. The negative-log IC50 (pIC50) was under 4.00 with MCF7 and 4.66 in assay [1].

For `O=C1C[C@@H](c2ccc(O)cc2O)N1c1ccc2c(c1)OCCO2`, the figures for the pIC50 (in the assay on MCF7; in assay [1]) were 4.64 and under 3.70, respectively.
